According to patent US11000627B2, “Treatment of implants with phosphonic acid compounds” (Nano Bridging Molecules SA, priority 2016, dated 2021):
Marks after values point to notes of the source that are not given here.

Key:
Type in all cases: physicochemical
[1] = XPS phosphorus over metal ratio on ceramic dental implants; settings: sonicated 70° C. 60 min, Metal = Al2s + Zr3d + Y3d
Protocol: A ceramic dental implant (alumina toughened zirconia, yttria stabilized; length 11.0 mm, diameter 3.8 mm) was provided with a smooth surface. The dental implant was immersed in 50 ml of a 2% (v/v) aqueous solution of deconex 15 PF-x (which is a phosphate free, potassium hydroxide based standard cleaning agent). The solution was placed in an ultrasonic bath (output frequency 30 kHz) and sonicated at 70° C. for 15 min. This step was repeated a second time. The implant was removed from the cleaning agent solution and rinsed with water as follows: 2 times with 50 ml, swirling at room temperature; 3 times with 50 ml, sonicating for 2 min at 70° C. The implant was then placed into 15 ml of a 0.7 mM aqueous solution of 1,1,3,3-propane tetraphosphonic acid. The solution was placed in the ultrasonic bath and sonicated at 70° C. for 60 min. The implant was rinsed with water as follows: 1 time with 10 ml, swirling at room temperature; 2 times with 10 ml, sonicating for 2 min at 65° C.; 1 time with 10 ml, swirling at room temperature. The dental implant was dried in a desiccator over P2O5 and under vacuum (ca 20 mbar) for at least 3 hours.
Following the surface treatment with one phosphonic acid compound as described in Examples 1 to 7 the samples were analyzed by X-ray photoelectron spectroscopy (XPS). XPS analyses were performed on an Axis Ultra spectrometer from Kratos (Kratos, Manchester, U.K.) equipped with a concentric hemispherical analyzer and using a monochromatized aluminum anode X-ray source (Al Kα1,2 1486.6 eV, full width at half maximum, fwhm=0.85 eV, 15 kV, 150 W). The samples were investigated under ultrahigh vacuum conditions: 10^−8-10^−7 Pa. Spectra were taken at a 90° takeoff angle with respect to the surface. A sample area of 300×700 μm^2 or 700×700 μm^2 was analyzed with a pass energy of 80.0 eV for survey scans. The spectrometer was calibrated by using Cu 2p3/2 (932.7 eV) and Au 4f7/2 (84.0 eV) signals. Surface sensitivity factors used to determine the atomic concentrations were those of the instrument. Spectra were peak fitted after background subtraction by assuming a Gaussian/Lorentzian (90-70/10-30) peak shape. All peaks between 0 eV to 1200 eV were inspected.
The phosphorus over metal ratio (“Phosphorus/Metal”) was calculated dividing the % atomic concentration of phosphorus by the sum of the % atomic concentrations of all metals expected in the analyzed sample.
Four ceramic dental implants (alumina toughened zirconia, yttria stabilized; length 11.0 mm, diameter 3.8 mm) were provided with a smooth surface. The dental implants were immersed in 300 ml of a 2% (v/v) aqueous solution of deconex 15 PF-x (which is a phosphate free, potassium hydroxide based standard cleaning agent). […] The samples were analyzed by X-ray photoelectron spectroscopy (XPS). […]

[2] = XPS phosphorus over metal ratio on Titanium grade 4 cylinders; settings: 0.7 mM, Metal = Ti2p
Protocol: Two Titanium grade 4 cylinders (bulk composition atomic concentration Titanium 100%; length 6.0 mm, diameter 2.4 mm) were provided with a roughened surface, produced by sand blasting and acid etching according to industry standards. The cylinders were immersed in 6 ml of a 2% (v/v) aqueous solution of deconex 15 PF-x (which is a phosphate free, potassium hydroxide based standard cleaning agent). The solution was placed in an ultrasonic bath (output frequency 30 kHz) and sonicated at 65° C. for 15 min. The cylinders were removed from the cleaning agent solution and rinsed with water as follows: 2 times with 10 ml, swirling at room temperature; 4 times with 10 ml, sonicating for 2 min at 65° C.; 1 time with 10 ml, swirling at room temperature. The cylinders were then placed into 6 ml of a 0.7 mM aqueous solution of 1,1,3,3-propane tetraphosphonic acid. The solution was placed in the ultrasonic bath and sonicated at 65° C. for 15 min. The cylinders were rinsed with water as follows: 2 times with 10 ml, swirling at room temperature; 1 time with 10 ml, sonicating for 2 min at 65° C.; 1 time with 10 ml, swirling at room temperature. The cylinders were dried in a desiccator over P2O5 and under vacuum (ca 20 mbar) for at least 3 hours.
Two Titanium grade 4 cylinders (bulk composition atomic concentration Titanium 100%; length 6.0 mm, diameter 2.4 mm) were provided with a roughened surface, produced by sand blasting and acid etching according to industry standards. The cylinders were immersed in 6 ml of a 2% (v/v) aqueous solution of deconex 15 PF-x (which is a phosphate free, potassium hydroxide based standard cleaning agent). The solution was placed in an ultrasonic bath (output frequency 30 kHz) and sonicated at room temperature for 15 min. The cylinders were removed from the cleaning agent solution and rinsed with water as follows: 2 times with 10 ml, swirling at room temperature; 4 times with 10 ml, sonicating for 2 min at room temperature; 1 time with 10 ml, swirling at room temperature. The cylinders were then placed into 6 ml of a 0.7 mM aqueous solution of 1,1,3,3-propane tetraphosphonic acid. The solution was swirled thoroughly and left to stand at room temperature for 15 min. The cylinders were rinsed with water as follows: 2 times with 10 ml, swirling at room temperature; 1 time with 10 ml, sonicating for 2 min at room temperature; 1 time with 10 ml, swirling at room temperature. The cylinders were dried in a desiccator over P2O5 and under vacuum (ca 20 mbar) for at least 3 hours.

[3] = Thickness of phosphonic acid layer by depth profiling using XPS; settings: for Phosphorus/Metal: Metal = Zr3d + Y3d
Protocol: Two ceramic discs (yttria stabilized zirconia; length 5.0 mm, diameter 1.0 mm) were provided with a roughened surface, produced by sand blasting and acid etching according to industry standards. The discs were immersed in 80 ml of a 2% (v/v) aqueous solution of deconex 15 PF-x (which is a phosphate free, potassium hydroxide based standard cleaning agent). The solution was placed in an ultrasonic bath (output frequency 30 kHz) and sonicated at 70° C. for 15 min. This step was repeated a second time. The discs were removed from the cleaning agent solution and rinsed with water as follows: 2 times with 90 ml, swirling at room temperature; 3 times with 90 ml, sonicating for 2 min at 70° C. The discs were then placed into 2 glass bottles and immersed into 2.5 ml of a 0.7 mM aqueous solution of 1,1,3,3-propane tetraphosphonic acid. The solutions were placed in the ultrasonic bath and sonicated at 70° C. for 60 min. The discs were rinsed with water as follows: 1 time with 10 ml, swirling at room temperature; 1 time with 10 ml, sonicating for 2 min at 65° C.; 1 time with 10 ml, swirling at room temperature. The discs were dried in a desiccator over P2O5 and under vacuum (ca 20 mbar) for at least 3 hours.
Following the surface treatment, the thickness of the phosphonic acid layer was determined by depth profiling using XPS. Ion gun sputtering cycles were alternated with XPS measurements. An ion gun was used to etch the material for a defined period of time. Once turned off, XPS spectra were acquired. The depth profiles were performed using a Kratos AXIS Nova high resolution spectrometer. An Al-standard source was used for the measurement. Depth profile sputtering was performed by scanning a 3.8 keV Ar+ beam at 100 μA extractor current over an area of 4 mm×4 mm. The sputter rate of Ta2O5 standards measured under these conditions (6 nm/min) was used to convert sputter time in approximate sputter depth. Spectra were measured after the following sputtering times: 0, 5, 10, 15, 20, 30, 40, 60 sec. Spectra were peak fitted after background subtraction by assuming a Gaussian/Lorentzian (90-70/10-30) peak shape. All peaks between 0 eV to 1200 eV were inspected.
The phosphorus peak was measured at % atomic concentrations close to the detection limit (0.5%) after 10 seconds of sputtering.

Phosphorus/Metal ([1]; 0.7 mM): 0.12
Phosphorus/Metal ([1]; 2.5 mM): 0.12
Phosphorus/Metal ([1]; 5 mM): 0.11
Phosphorus/Metal ([1]; 10 mM): 0.12
Phosphorus/Metal ([2]; Phosphonic acid 5 min, sonicated 65° C.): 0.24^b
Phosphorus/Metal ([2]; Phosphonic acid 10 min, sonicated 65° C.): 0.28^b
Phosphorus/Metal ([2]; Phosphonic acid 30 min, sonicated 65° C.): 0.30^b
Phosphorus/Metal ([2]; Phosphonic acid 60 min, sonicated 65° C.): 0.28^b
Phosphorus/Metal ([2]; all steps sonicated at 40° C., 15 min): 0.22^b
Phosphorus/Metal ([2]; all steps sonicated at 50° C., 15 min): 0.26^b
Phosphorus/Metal ([2]; all steps sonicated at 60° C., 15 min): 0.25^b
Phosphorus/Metal ([2]; all steps sonicated at 70° C., 15 min): 0.25^b
Phosphorus/Metal ([2]; all steps sonicated at 80° C., 15 min): 0.27^b
Phosphorus/Metal ([2]; all steps sonicated at 90° C., 15 min): 0.27^b
Phosphorus/Metal ([2]; pre-treatment Deconex 15PF-x 5 min, sonicated 65° C. 15 min): 0.36^b
Phosphorus/Metal ([2]; pre-treatment Deconex 15PF-x 15 min, sonicated 65° C. 15 min): 0.32^b
Phosphorus/Metal ([2]; pre-treatment Deconex 15PF-x 30 min, sonicated 65° C. 15 min): 0.32^b
thickness of monolayer ([3]; 0.7 mM, sonicated 70° C. 60 min, sputter depth from Ta2O5 standard rate): about 1 nm
Phosphorus/Metal ([3]; sputtering 0 sec, depth 0 nm): 0.18^b
Phosphorus/Metal ([3]; sputtering 5 sec, depth 0.5 nm): 0.03^b
Phosphorus/Metal ([3]; sputtering 10 sec, depth 1 nm): 0.02^b
Phosphorus/Metal ([3]; sputtering 15 sec, depth 1.5 nm): 0.02^b
Phosphorus/Metal ([3]; sputtering 20 sec, depth 2 nm): 0.01^b
Phosphorus/Metal ([3]; sputtering 30 sec, depth 3 nm): 0.02^b
Phosphorus/Metal ([3]; sputtering 40 sec, depth 4 nm): 0.01^b
Phosphorus/Metal ([3]; sputtering 60 sec, depth 6 nm): 0.00^b
Compound: O=P(O)(O)C(CC(P(=O)(O)O)P(=O)(O)O)P(=O)(O)O [1,1,3,3-propane tetraphosphonic acid]
